Where a SMILES comes first, the peptide text is derived from it. Bridges are numbered along the chain shown (N, C = ends). [ ]: non-standard residue; d: D form. The star is where a group is joined. Ileψ(thiazoline)Cys = CC[C@H](C)[C@H](N)C1=N[C@H](C(=O)*)CS1; dOrn = NCCC[C@@H](N)C(=O)O
What was measured:
[1] = target: Cytochrome P450 2D6 (Homo sapiens, UniProt P10635); settings: bti-tn-5b1-4; further: in other assays of this panel Not Active means under 50% inhibition at 10 µM
[2] = target: Melanocortin receptor 3 (Homo sapiens, UniProt P41968); type: cell membranes, Membrane; settings: hek293; further: in other assays of this panel Not Active means under 50% inhibition at 10 µM
Chain of Melanocortin receptor 3 (P41968 whole entry): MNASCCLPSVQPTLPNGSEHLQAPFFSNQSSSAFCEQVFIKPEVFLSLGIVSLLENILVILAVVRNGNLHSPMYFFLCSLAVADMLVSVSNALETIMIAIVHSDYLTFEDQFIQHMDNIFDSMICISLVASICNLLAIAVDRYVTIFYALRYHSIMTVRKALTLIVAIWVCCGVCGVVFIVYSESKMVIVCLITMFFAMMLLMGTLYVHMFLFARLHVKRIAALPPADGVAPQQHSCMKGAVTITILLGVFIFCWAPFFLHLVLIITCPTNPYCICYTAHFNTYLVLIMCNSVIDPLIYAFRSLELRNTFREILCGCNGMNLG

[3] = target: T1, Cytochrome P450 1A2 (Homo sapiens, UniProt P05177); settings: bti-tn-5b1-4; further: in other assays of this panel Not Active means under 50% inhibition at 10 µM
T1 sequence (P05177 whole entry): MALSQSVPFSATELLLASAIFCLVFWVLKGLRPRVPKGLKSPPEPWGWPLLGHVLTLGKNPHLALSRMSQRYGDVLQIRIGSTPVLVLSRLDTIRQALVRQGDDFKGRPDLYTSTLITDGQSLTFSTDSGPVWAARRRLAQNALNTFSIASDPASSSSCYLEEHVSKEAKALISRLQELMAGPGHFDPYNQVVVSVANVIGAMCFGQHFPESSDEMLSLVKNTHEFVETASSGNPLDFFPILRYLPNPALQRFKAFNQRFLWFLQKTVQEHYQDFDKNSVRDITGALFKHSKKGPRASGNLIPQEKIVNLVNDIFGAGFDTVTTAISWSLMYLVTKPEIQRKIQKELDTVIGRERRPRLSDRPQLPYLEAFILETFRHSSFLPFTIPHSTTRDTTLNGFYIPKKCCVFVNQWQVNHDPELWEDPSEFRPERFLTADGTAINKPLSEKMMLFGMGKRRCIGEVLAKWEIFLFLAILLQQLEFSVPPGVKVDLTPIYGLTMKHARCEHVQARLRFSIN

[4] = target: Beta-2 adrenergic receptor (Homo sapiens, UniProt P07550); assay: DRUGMATRIX: Adrenergic beta2 radioligand binding (ligand: [3H] CGP-12177); type: cell membranes, Membrane; settings: cho; Not Active = under 50% inhibition at 10 µM
Chain of Beta-2 adrenergic receptor (P07550 whole entry): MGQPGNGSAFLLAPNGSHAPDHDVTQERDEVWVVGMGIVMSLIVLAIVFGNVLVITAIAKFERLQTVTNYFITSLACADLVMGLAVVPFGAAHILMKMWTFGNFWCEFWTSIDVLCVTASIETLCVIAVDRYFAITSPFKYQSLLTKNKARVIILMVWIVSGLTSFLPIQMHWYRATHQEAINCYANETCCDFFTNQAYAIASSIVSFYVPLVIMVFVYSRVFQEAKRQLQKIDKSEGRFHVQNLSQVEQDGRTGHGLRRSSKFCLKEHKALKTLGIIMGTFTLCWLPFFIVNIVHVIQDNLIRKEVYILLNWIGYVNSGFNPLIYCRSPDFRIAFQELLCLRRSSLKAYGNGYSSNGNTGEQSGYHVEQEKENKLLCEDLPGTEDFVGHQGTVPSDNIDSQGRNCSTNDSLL

[5] = DRUGMATRIX: Leukotriene, BLT (LTB4) radioligand binding (ligand: [3H]LTB4); type: cell membranes, Membrane; settings: u-937; Not Active = under 50% inhibition at 10 µM
[6] = DRUGMATRIX: Imidazoline I2, Central radioligand binding (ligand: [3H] Idazoxan); type: cell membranes, Rattus norvegicus, Wistar, Cerebral cortex, Membrane; settings: Not Active = under 50% inhibition at 10 µM
[7] = target: Estrogen receptor beta (Homo sapiens, UniProt Q92731); settings: sf9; further: in other assays of this panel Not Active means under 50% inhibition at 10 µM
Chain of Estrogen receptor beta (Q92731 whole entry): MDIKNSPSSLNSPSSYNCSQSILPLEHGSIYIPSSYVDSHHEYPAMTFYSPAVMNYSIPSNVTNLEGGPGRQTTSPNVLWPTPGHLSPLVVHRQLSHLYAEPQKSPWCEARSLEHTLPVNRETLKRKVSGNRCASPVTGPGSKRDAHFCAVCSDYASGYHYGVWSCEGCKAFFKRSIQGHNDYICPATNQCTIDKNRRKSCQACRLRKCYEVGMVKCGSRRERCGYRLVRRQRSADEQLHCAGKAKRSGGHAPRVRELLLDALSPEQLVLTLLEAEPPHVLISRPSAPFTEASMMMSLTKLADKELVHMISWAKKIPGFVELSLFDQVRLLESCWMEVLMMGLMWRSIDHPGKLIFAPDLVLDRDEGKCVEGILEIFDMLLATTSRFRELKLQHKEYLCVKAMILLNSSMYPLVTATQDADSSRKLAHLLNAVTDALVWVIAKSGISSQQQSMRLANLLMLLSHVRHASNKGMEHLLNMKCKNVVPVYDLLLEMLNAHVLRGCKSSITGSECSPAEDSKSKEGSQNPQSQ

[8] = target: T2, C-X-C chemokine receptor type 1 (Homo sapiens, UniProt P25024); further: in other assays of this panel Not Active means under 50% inhibition at 10 µM
T2 sequence (P25024 whole entry): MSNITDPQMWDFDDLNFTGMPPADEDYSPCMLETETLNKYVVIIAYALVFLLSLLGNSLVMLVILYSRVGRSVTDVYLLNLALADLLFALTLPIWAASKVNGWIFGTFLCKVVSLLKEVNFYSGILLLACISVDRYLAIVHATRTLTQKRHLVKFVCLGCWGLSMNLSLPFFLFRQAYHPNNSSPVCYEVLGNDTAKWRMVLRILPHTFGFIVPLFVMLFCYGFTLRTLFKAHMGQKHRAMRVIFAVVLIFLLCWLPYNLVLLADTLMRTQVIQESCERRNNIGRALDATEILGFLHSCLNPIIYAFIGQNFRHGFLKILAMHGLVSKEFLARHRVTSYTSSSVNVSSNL

[9] = target: Insulin receptor (Rattus norvegicus, UniProt P15127); type: cell membranes, Wistar, Liver, Membrane; further: in other assays of this panel Not Active means under 50% inhibition at 10 µM
Chain of Insulin receptor (P15127 27-759 limits assumed): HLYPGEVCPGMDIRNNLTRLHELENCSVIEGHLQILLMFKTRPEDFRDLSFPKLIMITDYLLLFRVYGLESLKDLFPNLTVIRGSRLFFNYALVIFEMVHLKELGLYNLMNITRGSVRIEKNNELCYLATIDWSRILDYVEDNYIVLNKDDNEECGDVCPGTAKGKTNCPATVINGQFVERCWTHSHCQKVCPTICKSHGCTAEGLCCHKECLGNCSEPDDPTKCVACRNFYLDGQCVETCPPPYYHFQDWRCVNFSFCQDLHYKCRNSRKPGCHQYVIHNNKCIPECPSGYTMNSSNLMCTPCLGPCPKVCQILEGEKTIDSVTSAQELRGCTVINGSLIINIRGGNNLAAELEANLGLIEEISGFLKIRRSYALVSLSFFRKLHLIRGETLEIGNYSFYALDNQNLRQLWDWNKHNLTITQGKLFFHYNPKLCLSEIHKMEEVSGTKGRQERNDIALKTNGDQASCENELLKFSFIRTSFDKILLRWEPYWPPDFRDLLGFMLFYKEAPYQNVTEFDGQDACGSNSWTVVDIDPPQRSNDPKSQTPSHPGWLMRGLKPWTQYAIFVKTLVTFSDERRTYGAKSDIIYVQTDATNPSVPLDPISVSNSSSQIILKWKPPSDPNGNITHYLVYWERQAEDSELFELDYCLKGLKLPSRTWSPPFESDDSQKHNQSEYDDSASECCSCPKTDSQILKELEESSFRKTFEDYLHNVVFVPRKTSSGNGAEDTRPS
Chain of Insulin receptor (P15127 764-1383 limits assumed): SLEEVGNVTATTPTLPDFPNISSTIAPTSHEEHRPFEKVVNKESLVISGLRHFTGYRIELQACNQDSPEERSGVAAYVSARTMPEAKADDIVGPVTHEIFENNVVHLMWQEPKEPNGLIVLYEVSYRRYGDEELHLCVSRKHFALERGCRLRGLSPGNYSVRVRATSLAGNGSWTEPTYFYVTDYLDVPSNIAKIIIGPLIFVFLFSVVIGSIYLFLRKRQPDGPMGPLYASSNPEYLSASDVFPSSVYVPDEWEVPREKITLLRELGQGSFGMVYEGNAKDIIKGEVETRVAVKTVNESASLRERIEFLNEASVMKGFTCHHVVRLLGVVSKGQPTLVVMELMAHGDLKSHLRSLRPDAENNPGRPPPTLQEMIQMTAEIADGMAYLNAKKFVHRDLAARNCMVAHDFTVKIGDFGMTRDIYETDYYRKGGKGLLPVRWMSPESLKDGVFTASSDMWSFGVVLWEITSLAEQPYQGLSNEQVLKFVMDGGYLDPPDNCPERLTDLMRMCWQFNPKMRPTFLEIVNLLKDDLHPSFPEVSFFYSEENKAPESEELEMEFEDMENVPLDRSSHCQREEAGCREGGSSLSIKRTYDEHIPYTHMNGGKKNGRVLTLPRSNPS

[10] = target: T3, Cholecystokinin receptor type A (Homo sapiens, UniProt P32238); type: cell membranes, Membrane; settings: 1321-n1; further: in other assays of this panel Not Active means under 50% inhibition at 10 µM
T3 sequence (P32238 whole entry): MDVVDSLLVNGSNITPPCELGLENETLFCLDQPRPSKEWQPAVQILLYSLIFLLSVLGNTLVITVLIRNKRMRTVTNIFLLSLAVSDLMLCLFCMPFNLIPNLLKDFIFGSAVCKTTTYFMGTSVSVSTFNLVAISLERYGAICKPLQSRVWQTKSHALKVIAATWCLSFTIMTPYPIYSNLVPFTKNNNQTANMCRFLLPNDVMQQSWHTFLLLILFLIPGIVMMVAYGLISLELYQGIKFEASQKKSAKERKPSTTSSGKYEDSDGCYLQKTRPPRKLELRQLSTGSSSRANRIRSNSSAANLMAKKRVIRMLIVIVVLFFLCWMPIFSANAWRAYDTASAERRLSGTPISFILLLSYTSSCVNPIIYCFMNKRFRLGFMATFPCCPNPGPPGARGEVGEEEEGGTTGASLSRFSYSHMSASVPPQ

[11] = target: T4, Muscarinic acetylcholine receptor M4 (Homo sapiens, UniProt P08173); type: cell membranes, CHO-K1, Membrane; settings: cho-k1; further: in other assays of this panel Not Active means under 50% inhibition at 10 µM
T4 sequence (P08173 whole entry): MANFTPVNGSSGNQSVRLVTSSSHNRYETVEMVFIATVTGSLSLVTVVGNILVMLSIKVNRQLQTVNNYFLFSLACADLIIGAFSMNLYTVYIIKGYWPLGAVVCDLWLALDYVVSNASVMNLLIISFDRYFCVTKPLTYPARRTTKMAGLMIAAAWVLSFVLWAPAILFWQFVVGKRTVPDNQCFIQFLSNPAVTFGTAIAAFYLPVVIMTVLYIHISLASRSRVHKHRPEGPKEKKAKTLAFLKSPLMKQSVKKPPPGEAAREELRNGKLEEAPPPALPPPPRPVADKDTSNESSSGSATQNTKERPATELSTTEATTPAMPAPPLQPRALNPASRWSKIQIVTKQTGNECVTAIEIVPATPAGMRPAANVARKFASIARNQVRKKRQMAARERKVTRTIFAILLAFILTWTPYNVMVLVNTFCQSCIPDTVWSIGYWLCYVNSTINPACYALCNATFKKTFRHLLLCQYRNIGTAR

[12] = target: 5-hydroxytryptamine receptor 4 (Cavia porcellus, UniProt O70528); type: cell membranes, Dunkin-Hartley, Striatum, Membrane; further: in other assays of this panel Not Active means under 50% inhibition at 10 µM
Chain of 5-hydroxytryptamine receptor 4 (O70528 whole entry): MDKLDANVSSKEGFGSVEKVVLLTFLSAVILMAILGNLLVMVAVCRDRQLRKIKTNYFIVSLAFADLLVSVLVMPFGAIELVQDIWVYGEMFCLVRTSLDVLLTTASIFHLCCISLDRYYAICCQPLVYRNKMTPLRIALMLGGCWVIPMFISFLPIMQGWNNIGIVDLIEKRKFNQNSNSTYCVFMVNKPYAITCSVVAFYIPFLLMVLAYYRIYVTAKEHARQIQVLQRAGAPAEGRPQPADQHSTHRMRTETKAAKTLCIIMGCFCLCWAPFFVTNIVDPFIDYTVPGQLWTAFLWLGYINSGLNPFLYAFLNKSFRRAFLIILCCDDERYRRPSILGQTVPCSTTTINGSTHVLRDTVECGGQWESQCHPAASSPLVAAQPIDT

[13] = DRUGMATRIX: Sodium/nucleoside co-transporter radioligand binding (ligand: nitrobenzylthioinosine); type: cell membranes, Cavia porcellus, Dunkin-Hartley, Cerebral cortex, Membrane; settings: Not Active = under 50% inhibition at 10 µM
[14] = target: Histamine H2 receptor (Homo sapiens, UniProt P25021); type: cell membranes, CHO-K1, Membrane; settings: cho-k1; further: in other assays of this panel Not Active means under 50% inhibition at 10 µM
Chain of Histamine H2 receptor (P25021 whole entry): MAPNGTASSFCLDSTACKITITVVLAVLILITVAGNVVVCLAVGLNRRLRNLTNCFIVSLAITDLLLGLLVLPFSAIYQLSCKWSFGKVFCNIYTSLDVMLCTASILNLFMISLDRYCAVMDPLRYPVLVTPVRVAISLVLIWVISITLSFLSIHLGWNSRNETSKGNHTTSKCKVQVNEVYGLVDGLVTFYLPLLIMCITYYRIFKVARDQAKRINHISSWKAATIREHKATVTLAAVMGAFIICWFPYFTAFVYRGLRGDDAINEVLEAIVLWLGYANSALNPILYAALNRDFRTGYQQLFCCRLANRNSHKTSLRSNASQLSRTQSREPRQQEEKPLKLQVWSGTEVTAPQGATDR

Chain of Cytochrome P450 2D6 (P10635 whole entry): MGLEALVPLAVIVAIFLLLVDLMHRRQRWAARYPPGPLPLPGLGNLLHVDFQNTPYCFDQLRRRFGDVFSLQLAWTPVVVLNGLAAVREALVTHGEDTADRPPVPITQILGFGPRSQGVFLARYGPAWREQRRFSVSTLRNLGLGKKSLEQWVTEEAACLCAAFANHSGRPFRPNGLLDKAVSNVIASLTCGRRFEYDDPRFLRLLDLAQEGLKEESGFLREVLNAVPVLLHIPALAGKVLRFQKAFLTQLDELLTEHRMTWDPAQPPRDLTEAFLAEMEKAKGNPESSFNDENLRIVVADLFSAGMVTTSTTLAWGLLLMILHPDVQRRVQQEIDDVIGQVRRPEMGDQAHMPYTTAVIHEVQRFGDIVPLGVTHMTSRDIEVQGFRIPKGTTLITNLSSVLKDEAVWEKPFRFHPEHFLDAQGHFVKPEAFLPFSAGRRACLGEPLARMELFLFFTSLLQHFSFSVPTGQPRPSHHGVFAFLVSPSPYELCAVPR

CC(=O)[C@@]1(O)CC[C@H]2[C@@H]3C[C@H](C)C4=CC(=O)C=C[C@]4(C)[C@@]3(F)[C@@H](O)C[C@@]21C [FLUOROMETHOLONE]
Not Active: IC50 [1] | Ki [1] | IC50 [2] | IC50 [3] | Ki [3] | IC50 [4] | IC50 [5] | Ki [5] | IC50 [6] | Ki [6] | IC50 [7] | IC50 [8] | IC50 [9] | IC50 [10] | IC50 [11] | IC50 [12] | IC50 [13] | Ki [13] | IC50 [14]

O=c1[nH]cc(F)c(=O)[nH]1 [FLUOROURACIL]
Not Active: IC50 [1] | Ki [1] | IC50 [2] | IC50 [3] | Ki [3] | IC50 [4] | IC50 [5] | Ki [5] | IC50 [6] | Ki [6] | IC50 [7] | IC50 [8] | IC50 [9] | IC50 [10] | IC50 [11] | IC50 [12] | IC50 [13] | Ki [13] | IC50 [14]

CC[C@H](C)[C@H](N)C1=N[C@H](C(=O)N[C@@H](CC(C)C)C(=O)N[C@H](CCC(=O)O)C(=O)N[C@H](C(=O)N[C@H]2CCCCNC(=O)[C@H](CC(N)=O)NC(=O)[C@@H](CC(=O)O)NC(=O)[C@H](Cc3cnc[nH]3)NC(=O)[C@@H](Cc3ccccc3)NC(=O)[C@H]([C@@H](C)CC)NC(=O)[C@@H](CCCN)NC2=O)[C@@H](C)CC)CS1 [BACITRACIN] ({Ileψ(thiazoline)Cys}-L[dE]IK[dOrn]I[dF]H[dD]N; lactam 4-C)
Not Active: IC50 [1] | Ki [1] | IC50 [2] | IC50 [3] | Ki [3] | IC50 [4] | IC50 [5] | Ki [5] | IC50 [6] | Ki [6] | IC50 [7] | IC50 [8] | IC50 [9] | IC50 [10] | IC50 [11] | IC50 [12] | IC50 [13] | Ki [13] | IC50 [14]

Nc1nc(=O)[nH]cc1F [FLUCYTOSINE]
Not Active: IC50 [1] | Ki [1] | IC50 [2] | IC50 [3] | Ki [3] | IC50 [4] | IC50 [5] | Ki [5] | IC50 [6] | Ki [6] | IC50 [7] | IC50 [8] | IC50 [9] | IC50 [10] | IC50 [11] | IC50 [12] | IC50 [13] | Ki [13] | IC50 [14]

CC1(C)S[C@@H]2[C@H](NC(=O)[C@H](NC(=O)N3CCNC3=O)c3ccccc3)C(=O)N2[C@H]1C(=O)O [AZLOCILLIN]
Not Active: IC50 [1] | Ki [1] | IC50 [2] | IC50 [3] | Ki [3] | IC50 [4] | IC50 [5] | Ki [5] | IC50 [6] | Ki [6] | IC50 [7] | IC50 [8] | IC50 [9] | IC50 [10] | IC50 [11] | IC50 [12] | IC50 [13] | Ki [13] | IC50 [14]

Oc1cccc2cccnc12 [OXYQUINOLINE]
Not Active: IC50 [1] | Ki [1] | IC50 [2] | IC50 [3] | Ki [3] | IC50 [4] | IC50 [5] | Ki [5] | IC50 [6] | Ki [6] | IC50 [7] | IC50 [8] | IC50 [9] | IC50 [10] | IC50 [11] | IC50 [12] | IC50 [13] | Ki [13] | IC50 [14]

CN1CCC[C@H]1c1cccnc1 [NICOTINE]
Not Active: IC50 [1] | Ki [1] | IC50 [2] | IC50 [3] | Ki [3] | IC50 [4] | IC50 [5] | Ki [5] | IC50 [6] | Ki [6] | IC50 [7] | IC50 [8] | IC50 [9] | IC50 [10] | IC50 [11] | IC50 [12] | IC50 [13] | Ki [13] | IC50 [14]

NCC[C@H](O)C(=O)N[C@@H]1C[C@H](N)[C@@H](O[C@H]2O[C@H](CN)[C@@H](O)[C@H](O)[C@H]2O)[C@H](O)[C@H]1O[C@H]1O[C@H](CO)[C@@H](O)[C@H](N)[C@H]1O [AMIKACIN]
Not Active: IC50 [1] | Ki [1] | IC50 [2] | IC50 [3] | Ki [3] | IC50 [4] | IC50 [5] | Ki [5] | IC50 [6] | Ki [6] | IC50 [7] | IC50 [8] | IC50 [9] | IC50 [10] | IC50 [11] | IC50 [12] | IC50 [13] | Ki [13] | IC50 [14]
